Reference: patent US6947847B2, “Method to design therapeutically important compounds” (Wisconsin Alumni Research Foundation, priority 2002, dated 2005)
Where two headings read alike, the source gives them in different places.

Experiments:
human renin = human renin (Homo sapiens, UniProt P00797); conditions: cited from earlier work
R. chinensis pepsin = target: T1, R. chinensis pepsin (Rhizopus chinensis, UniProt P06026); assay: biochemical
T1 sequence (P06026 69-393): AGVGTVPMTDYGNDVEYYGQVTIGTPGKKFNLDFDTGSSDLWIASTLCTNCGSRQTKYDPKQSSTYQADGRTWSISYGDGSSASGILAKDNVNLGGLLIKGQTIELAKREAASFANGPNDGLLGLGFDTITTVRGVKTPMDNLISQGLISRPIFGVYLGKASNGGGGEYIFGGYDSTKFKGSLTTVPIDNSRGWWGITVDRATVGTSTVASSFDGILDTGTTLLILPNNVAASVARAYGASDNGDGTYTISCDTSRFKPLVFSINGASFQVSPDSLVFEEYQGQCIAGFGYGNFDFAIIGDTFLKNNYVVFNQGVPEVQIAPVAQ
Experimental: Inhibition of substrate hydrolysis by porcine pepsin and R. chinensis pepsin was determined using prior art assay conditions. See Flentke et al. (1999) Protein Expression Purif. 16:213 and Peranteau et al. (1995) Anal. Biochem. 227:242.

porcine pepsin = porcine pepsin (Sus scrofa, UniProt P00791); assay: Inhibition of substrate hydrolysis by porcine pepsin; assay type: biochemical
porcine pepsin, sequence (P00791 60-385): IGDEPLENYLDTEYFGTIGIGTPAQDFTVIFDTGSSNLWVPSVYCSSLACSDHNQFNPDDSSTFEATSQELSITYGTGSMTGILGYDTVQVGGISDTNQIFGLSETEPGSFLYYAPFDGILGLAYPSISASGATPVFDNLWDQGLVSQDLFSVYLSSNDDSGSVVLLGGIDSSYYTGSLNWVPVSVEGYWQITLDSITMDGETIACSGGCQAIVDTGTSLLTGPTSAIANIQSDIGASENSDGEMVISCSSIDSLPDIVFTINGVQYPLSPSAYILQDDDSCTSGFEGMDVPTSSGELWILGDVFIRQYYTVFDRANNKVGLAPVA

human renin, sequence (P00797 67-406): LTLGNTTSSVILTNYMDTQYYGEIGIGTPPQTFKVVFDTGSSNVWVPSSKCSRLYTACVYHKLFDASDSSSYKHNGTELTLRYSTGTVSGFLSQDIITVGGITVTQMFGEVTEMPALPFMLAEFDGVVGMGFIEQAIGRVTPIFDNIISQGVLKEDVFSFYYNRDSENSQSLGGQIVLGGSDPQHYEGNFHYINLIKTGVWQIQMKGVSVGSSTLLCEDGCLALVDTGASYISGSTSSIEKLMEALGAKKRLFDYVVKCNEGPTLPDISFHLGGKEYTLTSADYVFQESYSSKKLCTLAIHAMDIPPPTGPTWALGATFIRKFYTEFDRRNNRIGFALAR

In the case of `COc1ccc(CO[C@H]2CNCCC2c2ccc(Cl)cc2)cc1` (stereo partly drawn) [Compound 4], the “concentrations at which renin is inhibited (in words)” value (human renin; human renin, literature) is given as “low micromolar” and the IC50 (human renin; read-out: inhibits renin at, renin, literature value) is given as roughly 26000 nM.
For `O=C(COc1ccc([C@H]2CCNC[C@@H]2OCc2ccc(Br)cc2)cc1)c1ccc2ccccc2c1` [Compound 11], the IC50 (R. chinensis pepsin) was 200 nM and the IC50 (porcine pepsin; porcine pepsin, read-out: IC50) was 200 nM.
For `Brc1ccc(CO[C@H]2CNCC[C@@H]2c2ccccc2)cc1` [Compound 12], the IC50 (R. chinensis pepsin; R. chinensis pepsin, read-out: IC50) was 2000 nM and the IC50 (porcine pepsin) was 2000 nM.
